Test results published in ChEMBL document CHEMBL3102695, “New melatonin (MT1/MT2) ligands: design and synthesis of (8,9-dihydro-7H-furo[3,2-f]chromen-1-yl) derivatives” (Bioorg Med Chem, 2014).
Activity calls are given as the source filed them. The rule behind the calls is not given here.

Columns and labels:
[1] = Intrinsic activity at human melatonin MT1 receptor expressed in CHO cells assessed as [35S]GTPgammaS binding after 1 hr relative to melatonin; type: functional
[2] = Displacement of 2-[I]iodomelatonin from human melatonin MT2 receptor after 120 mins
[3] = Intrinsic activity at human melatonin MT1 receptor expressed in CHO cells assessed as [35S]GTPgammaS binding after 1 hr; type: functional, cell-based
[4] = Displacement of 2-[I]iodomelatonin from human melatonin MT1 receptor after 120 mins
[5] = Intrinsic activity at human melatonin MT2 receptor expressed in CHO cells assessed as [35S]GTPgammaS binding after 1 hr relative to melatonin; type: functional
[6] = Intrinsic activity at human melatonin MT2 receptor expressed in CHO cells assessed as [35S]GTPgammaS binding after 1 hr; type: functional, cell-based
Mus musculus [7] = assay: Increase of neophobia in C3H/he mouse assessed as time spent in unfamiliar compartment at 1 to 25 mg/kg, po; type: functional, organism-based
Mus musculus [8] = assay: Anxiolytic activity in C3H/he mouse assessed as increase in number of transitions at 10 to 40 mg/kg, po by light/dark box test; type: functional, organism-based
Rattus norvegicus = assay: Decrease of anticipation of social defeat in rat assessed as reduction of duration of immobility and vocalization at 40 mg/kg, ip; type: functional, organism-based; set-up: dose 40 mg/kg
Mus musculus [9] = assay: Increase of resynchronization of activity rhythm in C3H/he mouse at 20 mg/kg, ip; type: functional; conditions: route intraperitoneal
Mus musculus [10] = assay: Anxiolytic activity in C3H/he mouse assessed as increase in time spent in light box at 10 to 40 mg/kg, po by light/dark box test; type: functional, organism-based
Mus musculus [11] = assay: Anxiolytic activity in C3H/he mouse assessed as increase in number of transitions at 20 to 40 mg/kg, po by light/dark box test; type: functional, organism-based
Mus musculus [12] = assay: Increase of neophobia in C3H/he mouse assessed as time spent in unfamiliar compartment at 1 to 10 mg/kg, po; type: functional, organism-based
Mus musculus [13] = assay: Anxiolytic activity in C3H/he mouse assessed as increase in time spent in light box at 20 to 40 mg/kg, po by light/dark box test; type: functional, organism-based

| Ki [2] | EC50 [3] | Ki [4] | EC50 [6] | Compound | Emax [1] | Emax [5] | other results |
| --- | --- | --- | --- | --- | --- | --- | --- |
| 0.74 nM | – | 1.3 nM | – | CCCNC(=O)NCCc1coc2ccc3c(c12)CCCO3 | – | – | – |
| 0.08 nM | 0.2 nM | 0.07 nM | 0.1 nM | O=C(CI)NCCc1coc2ccc3c(c12)CCCO3 | 121% | 78% | – |
| 23 nM | – | 50 nM | – | CCCCNC(=O)NCCc1coc2ccc3c(c12)CCCO3 | – | – | – |
| 0.08 nM | 2.5 nM | 0.07 nM | 1.5 nM | C=CCC(=O)NCCc1coc2ccc3c(c12)CCCO3 | 68% | 57% | – |
| 0.59 nM | 0.8 nM | 0.31 nM | 0.19 nM | CC(=O)NCCc1coc2ccc3c(c12)CCCO3 | 98% | 68% | Activity (Mus musculus [7]): Active; Activity (Mus musculus [8]): Active; Activity (Rattus norvegicus): Active; Activity (Mus musculus [9]): 30%; Activity (Mus musculus [10]): Active |
| 0.38 nM | 13 nM | 0.11 nM | 51 nM | C=CC(=O)NCCc1coc2ccc3c(c12)CCCO3 | 80% | 74% | – |
| 46 nM | – | 23 nM | – | CCCCNC(=S)NCCc1coc2ccc3c(c12)CCCO3 | – | – | – |
| 7.4 nM | 143 nM | 5.6 nM | 38 nM | S=C(NCCc1coc2ccc3c(c12)CCCO3)NC1CC1 | 42% | 46% | – |
| 2.6 nM | 61 nM | 1.3 nM | 14 nM | C/C=C/C(=O)NCCc1coc2ccc3c(c12)CCCO3 | 92% | 65% | – |
| 4.4 nM | – | 5.4 nM | – | CCCNC(=S)NCCc1coc2ccc3c(c12)CCCO3 | – | – | – |

The next lines start with the compound.

| Compound | Ki [2] | EC50 [3] | Ki [4] | EC50 [6] | Emax [1] | Emax [5] | other results |
| --- | --- | --- | --- | --- | --- | --- | --- |
| CC(=O)NCCc1c(-c2ccccc2)oc2ccc3c(c12)CCCO3 | 0.14 nM | 0.12 nM | 0.04 nM | 0.07 nM | 107% | 104% | – |
| C=CCc1oc2ccc3c(c2c1CCNC(C)=O)CCCO3 | 0.12 nM | 0.15 nM | 0.03 nM | 0.08 nM | 104% | 109% | – |
| CC(=O)N(C)CCc1coc2ccc3c(c12)CCCO3 | 13 nM | > 10000 nM | 14 nM | > 10000 nM | – | – | – |
| CC(=O)NCCc1coc2cc(C(=O)c3cccc(C(F)(F)F)c3)c3c(c12)CCCO3 | 29 nM | – | 34 nM | – | – | – | – |
| CC(=O)NCCc1c(C(=O)c2cccc(C(F)(F)F)c2)oc2ccc3c(c12)CCCO3 | 2.6 nM | > 10000 nM | 326 nM | 16 nM | – | 44% | – |
| CC(=O)NCCc1coc2cc(C(=O)c3ccccc3)c3c(c12)CCCO3 | 40 nM | – | 44 nM | – | – | – | – |
| COc1cccc(C(=O)c2cc3occ(CCNC(C)=O)c3c3c2OCCC3)c1 | 80 nM | 455 nM | 35 nM | 149 nM | 56% | 58% | – |
| CC(=O)NCCc1c(-c2cccc(O)c2)oc2ccc3c(c12)CCCO3 | 0.21 nM | 4.6 nM | 0.87 nM | 0.21 nM | 46% | 93% | – |
| C=Cc1oc2ccc3c(c2c1CCNC(C)=O)CCCO3 | 0.2 nM | 0.08 nM | 0.05 nM | 0.21 nM | 113% | 120% | – |
| COc1ccc(C(=O)c2oc3ccc4c(c3c2CCNC(C)=O)CCCO4)cc1 | 2.7 nM | – | 105 nM | – | – | – | – |
| CCCC(=O)c1oc2ccc3c(c2c1CCNC(C)=O)CCCO3 | 0.1 nM | – | 0.97 nM | – | – | – | – |
| COc1ccc(C(=O)c2cc3occ(CCNC(C)=O)c3c3c2OCCC3)cc1 | 3860 nM | – | 5370 nM | – | – | – | – |
| COc1ccc2occ(CCNC(C)=O)c2c1 | – | 5.5 nM | 0.16 nM | 0.7 nM | 118% | 101% | – |
| COc1ccc2[nH]cc(CCNC(C)=O)c2c1 [MELATONIN] | – | 1.7 nM | 0.23 nM | 0.4 nM | – | – | Activity (Mus musculus [11]): Active; Activity (Mus musculus [12]): Active; Activity (Mus musculus [13]): Active |
| CC(=O)NCCc1c(-c2cccc(CO)c2)oc2ccc3c(c12)CCCO3 | 0.67 nM | 8.5 nM | 2.2 nM | 0.3 nM | 32% | 67% | – |
| COc1ccccc1C(=O)c1cc2occ(CCNC(C)=O)c2c2c1OCCC2 | – | – | 823 nM | – | – | – | – |
| COc1ccccc1C(=O)c1oc2ccc3c(c2c1CCNC(C)=O)CCCO3 | 13 nM | – | 53 nM | – | – | – | – |
| COc1cccc(C(=O)c2oc3ccc4c(c3c2CCNC(C)=O)CCCO4)c1 | 0.83 nM | – | 130 nM | – | – | – | – |
| COc1cccc(-c2oc3ccc4c(c3c2CCNC(C)=O)CCCO4)c1 | 0.3 nM | 1.8 nM | 0.33 nM | 0.2 nM | 30% | 68% | – |
| CC(=O)NCCc1coc2cc(Cc3cccc(C(F)(F)F)c3)c3c(c12)CCCO3 | 13 nM | – | 9 nM | – | – | – | – |
